Test results taken from patent US10669258B2, “3-sulfonyl-5-aminopyridine-2,4-diol APJ agonists” (BRISTOL-MYERS SQUIBB COMPANY, priority 2016, dated 2020).
Where two headings read alike, the source gives them in different places.

Biological target: T1, human APJ receptor (Homo sapiens, UniProt P35414)
T1 construct: expressed in transfected cells; host or cells: HEK293
T1 sequence (P35414 1-380): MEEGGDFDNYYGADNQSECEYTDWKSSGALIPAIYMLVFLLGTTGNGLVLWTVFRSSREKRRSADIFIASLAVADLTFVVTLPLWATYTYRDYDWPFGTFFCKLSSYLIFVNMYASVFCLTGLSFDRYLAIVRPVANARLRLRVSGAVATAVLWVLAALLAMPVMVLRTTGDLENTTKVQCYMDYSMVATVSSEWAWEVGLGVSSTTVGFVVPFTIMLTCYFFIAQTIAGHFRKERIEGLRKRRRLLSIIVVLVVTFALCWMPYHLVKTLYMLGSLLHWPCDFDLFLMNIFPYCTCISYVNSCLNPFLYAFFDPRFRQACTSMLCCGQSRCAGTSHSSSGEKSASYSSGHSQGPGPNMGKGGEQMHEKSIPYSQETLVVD
Assay: Intracellular cAMP accumulation assay (APJ hcAMP, HTRF)
Type: cell-based
Settings: HEK293 cells stably expressing human APJ receptor, inhibition of forskolin-mediated cAMP production
Description: Intracellular cAMP Accumulation Assay
HEK293 cells stably expressing human APJ receptor were used to assess the activity of compounds. Cultured cells were detached and resuspended in the cAMP Homogeneous Time-Resolved Fluorescence (HTRF) assay buffer (Cisbio cat; #62AM4PEJ). The assay was performed in 384-well assay plates (Perkin-Elmer; cat #6008289) according to assay protocol provided by the manufacturer. Serial dilutions of a compound together with assay buffer containing […] IBMX and 2 μM forskolin were added to each well containing 5,000 cells and incubated for 30 minutes at room temperature. Subsequently, cAMP D2 reagent was added in the lysis buffer followed by the EuK antibody (Cisbio; cat #62AM4PEJ) and incubated for 60 min. The fluorescence emission ratio was measured using fluorometer. The intracellular cAMP concentrations (compound-stimulated inhibition of forskolin-mediated cAMP production) were calculated by extrapolation from a standard curve using known cAMP concentrations. The EC50 values were obtained by fitting the data to a sigmoidal concentration-response curve with variable slope. The maximal achievable inhibition of forskolin-induced cAMP levels (Ymax) for each compound was expressed as relative percentage of inhibition attained using pyroglutamated apelin-13 ((Pyr1)apelin-13) peptide, which was set to 100%.
The examples disclosed below were tested in the APJ in vitro assays described above and were found having human APJ cyclic AMP (hcAMP) activity. The EC50 value of each compound is presented at the end of the example description.
The biological activity of the exemplified compounds of this invention determined by the assay described above is shown at the end of each example.

[1] = Table 1, read-out: hAPJ cAMP EC50 Potency range

SMILES	EC50 [1]	other results
CCCCc1nc(O)c(S(=O)(=O)c2ccc(-c3ccnc(F)c3C)cc2)c(O)c1N1CCC(C)c2ccccc21 (centres unmarked) [Example 044, 6-butyl-3-((4-(2-fluoro-3-methylpyridin-4-yl)phenyl)sulfonyl)-5-(4-methyl-3,4-dihydroquinolin-1(2H)-yl)pyridine-2,4-diol]	0.01 to 10 nM	
CCCCc1nc(O)c(C(=O)N2CCC(c3ccc(Cl)cn3)C2)c(O)c1N(CC)c1ccccc1 (centres unmarked) [Example 076, (6-butyl-5-(ethyl(phenyl)amino)-2,4-dihydroxypyridin-3-yl)(3-(5-chloropyridin-2-yl)pyrrolidin-1-yl)methanone]		EC50 (hAPJ cAMP EC50 Potency range, Table 1): 10 to 100 nM
CCN(c1ccccc1)c1c(-c2ccn(C)n2)nc(O)c(C(=O)N2CCC(c3ccccc3F)C2)c1O (centres unmarked) [Example 202, (5-(ethyl(phenyl)amino)-2,4-dihydroxy-6-(1-methyl-1H-pyrazol-3-yl)pyridin-3-yl)(3-(2-fluorophenyl)pyrrolidin-1-yl)methanone]		EC50 (Table 2, read-out: hAPJ cAMP EC50 Potency range): 0.01 to 10 nM
CCCCc1nc(O)c(S(=O)(=O)c2ccc(-c3ccc(F)nc3C)cc2)c(O)c1N1CCCCC1c1ccccc1 (centres unmarked) [Example 126, 6-butyl-3-((4-(6-fluoro-2-methylpyridin-3-yl)phenyl)sulfonyl)-5-(2-phenylpiperidin-1-yl)pyridine-2,4-diol]	10 to 100 nM	
CCCCc1nc(O)c(C(=O)N2CC[C@@H](c3ccccc3)C2)c(O)c1N(CC)c1ccccc1 [Example 001, (S)-(6-butyl-5-(ethyl(phenyl)amino)-2,4-dihydroxypyridin-3-yl)(3-phenylpyrrolidin-1-yl)methanone]		EC50 (Human APJ cAMP Potency range): 10 to 100 nM
CCCCc1nc(O)c(S(=O)(=O)c2ccccc2)c(O)c1N(CC)c1ccccc1 [Example 084, 6-butyl-5-(ethyl(phenyl)amino)-3-(phenylsulfonyl)pyridine-2,4-diol]	10 to 100 nM	
CCCCc1nc(O)c(S(=O)(=O)c2ccc(Br)cc2)c(O)c1N(CC)c1ccccc1 [Example 077, 3-((4-bromophenyl)sulfonyl)-6-butyl-5-(ethyl(phenyl)amino)pyridine-2,4-diol]	10 to 100 nM	
CCCCc1nc(O)c(S(=O)(=O)c2ccc(-c3ccnc(F)c3C)cc2)c(O)c1N(CC)c1cc(C)cc(C)c1 [Example 136, 6-butyl-5-((3,5-dimethylphenyl)(ethyl)amino)-3-((4-(2-fluoro-3-methylpyridin-4-yl)phenyl)sulfonyl)pyridine-2,4-diol]	0.01 to 10 nM	
CCCCc1nc(O)c(S(=O)(=O)c2ccc(-c3cccnc3C)cc2)c(O)c1N1c2ccccc2CCC1C (centres unmarked) [Example 046, 6-butyl-5-(2-methyl-3,4-dihydroquinolin-1(2H)-yl)-3-((4-(2-methylpyridin-3-yl)phenyl)sulfonyl)pyridine-2,4-diol]	0.01 to 10 nM	
CCCCc1nc(O)c(S(=O)(=O)c2ccc(-c3ccnc(F)c3C)cc2)c(O)c1N(CC)c1cccc(C#N)c1 [Example 172, 3-((2-butyl-5-((4-(2-fluoro-3-methylpyridin-4-yl)phenyl)sulfonyl)-4,6-dihydroxypyridin-3-yl)(ethyl)amino)benzonitrile]	0.01 to 10 nM	
CCCCc1nc(O)c(S(=O)(=O)c2ccc(C3CC3)cc2)c(O)c1N(C)c1ccccc1 [Example 016, 6-butyl-3-((4-cyclopropylphenyl)sulfonyl)-5-(methyl(phenyl)amino)pyridine-2,4-diol]	0.01 to 10 nM	

The next lines start with results.

EC50 [1]	SMILES	other results
0.01 to 10 nM	CCCCc1nc(O)c(S(=O)(=O)c2ccc(-c3ccncc3C)cc2)c(O)c1N(C)c1cccc(Cl)c1 [Example 110, 6-butyl-5-((3-chlorophenyl)(methyl)amino)-3-((4-(3-methylpyridin-4-yl)phenyl)sulfonyl)pyridine-2,4-diol]	
0.01 to 10 nM	CCCCc1nc(O)c(S(=O)(=O)c2ccc(-c3ccnc(F)c3C)cc2)c(O)c1N(C)c1ccccc1 [Example 011, 6-butyl-3-((4-(2-fluoro-3-methylpyridin-4-yl)phenyl)sulfonyl)-5-(methyl(phenyl)amino)pyridine-2,4-diol]	
0.01 to 10 nM	CCCCc1nc(O)c(S(=O)(=O)c2ccc(-c3ccnc(F)c3C)cc2)c(O)c1N(CC)c1ccccc1 [Example 080, 6-butyl-5-(ethyl(phenyl)amino)-3-((4-(2-fluoro-3-methylpyridin-4-yl)phenyl)sulfonyl)pyridine-2,4-diol]	
10 to 100 nM	CCCCc1nc(O)c(S(=O)(=O)c2ccc(-c3ccncc3C)cc2)c(O)c1N(C)c1cccc(OC)c1 [Example 031, 6-butyl-5-((3-methoxyphenyl)(methyl)amino)-3-((4-(3-methylpyridin-4-yl)phenyl)sulfonyl)pyridine-2,4-diol]	
0.01 to 10 nM	CCCCc1nc(O)c(S(=O)(=O)c2ccc(-c3ccccc3C(=O)NC)cc2)c(O)c1N(CC)c1cccc(C#N)c1 [Example 185, 4′-((6-butyl-5-((3-cyanophenyl)(ethyl)a-mino)-2,4-dihydroxypyridin-3-yl)sulfonyl)-N-methyl-[1,1′-biphenyl]-2-carboxamide]	
0.01 to 10 nM	CCCCc1nc(O)c(S(=O)(=O)c2ccc(-c3ccnc(F)c3C)cc2)c(O)c1N(C)c1ccccc1C [Example 193, 6-butyl-3-((4-(2-fluoro-3-methypyridin-4-yl)phenyl)sulfonyl)-5-(methyl(o-tolyl)amino)pyridine-2,4-diol]	
0.01 to 10 nM	CCCCc1nc(O)c(S(=O)(=O)c2ccc(-c3cccnc3C)cc2)c(O)c1N(C)c1cccc(F)c1 [Example 101, 6-butyl-5-((3-fluorophenyl)(methyl)amino)-3-((4-(2-methylpyridin-3-yl)phenyl)sulfonyl)pyridine-2,4-diol]	
0.01 to 10 nM	CCCCc1nc(O)c(S(=O)(=O)c2ccc(-c3ccccc3C(N)=O)cc2)c(O)c1N(CC)c1cccc(C#N)c1 [Example 181, 4′-((6-butyl-5-((3-cyanophenyl)(ethyl)a-mino)-2,4-dihdyroxypyridin-3-yl)sulfonyl)-[1,1′-biphenyl]-2-carboxamide]	
0.01 to 10 nM	CCN(c1ccccc1)c1c(-c2cccc(C)c2)nc(O)c(S(=O)(=O)c2ccc(-c3ccccc3C(=O)NC)cc2)c1O [Example 145, 4′-((5-(ethyl(phenyl)amino)-2,4-dihydroxy-6-(m-tolyl)pyridin-3-yl)sulfonyl)-N-methyl-[1,1′-biphenyl]-2-carboxamide]	
0.01 to 10 nM	CCCCc1nc(O)c(S(=O)(=O)c2ccc(-c3ccccc3C(=O)NC)cc2)c(O)c1N(C)c1cccc(C#N)c1 [Example 137, 4′-((6-butyl-5-((3-cyanophenyl)(methyl)amino)-2,4-dihydroxypyridin-3-yl)sulfonyl)-N-methyl-[1,1′-biphenyl]-2-carboxamide]	
0.01 to 10 nM	CNC(=O)c1ccccc1-c1ccc(S(=O)(=O)c2c(O)nc(-c3ccn(C)n3)c(N(c3ccccc3)C(C)C)c2O)cc1 [Example 158, 4′-((2,4-dihydroxy-5-(isopropyl(phen-yl)amino)-6-(1-methyl-1H-pyrazol-3-yl)pyridin-3-yl)sulfonyl)-N-methyl-[1,1′-biphenyl]-2-carboxamide]	
0.01 to 10 nM	CCCCc1nc(O)c(S(=O)(=O)c2ccc(-c3ccccc3C(=O)N(C)C)cc2)c(O)c1N(CC)c1cc(C)cc(C)c1 [Example 140, 4′-((6-butyl-5-((3,5-dimethylphenyl)(ethyl)amino)-2,4-dihydroxypyridin-3-yl)sulfonyl)-N,N-dimethyl-[1,1′-biphenyl]-2-carboxamide]	
0.01 to 10 nM	CCCCc1nc(O)c(S(=O)(=O)c2ccc(-c3cccnc3C)cc2)c(O)c1N(C)c1cccc(C)c1 [Example 096, 6-butyl-5-(methyl(m-tolyl)amino)-3-((4-(2-methylpyridin-3-yl)phenyl)sulfonyl)pyridine-2,4-diol]	
0.01 to 10 nM	CCN(c1ccccc1)c1c(CC2CC2)nc(O)c(S(=O)(=O)c2ccc(-c3ccccc3C(=O)N(C)C)cc2)c1O [Example 062, 4′-((6-(cyclopropylmethyl)-5-(ethyl(phenyl)amino)-2,4-dihydroxypyridin-3-yl)sulfonyl)-N,N-dimethyl-[1,1′-biphenyl]-2-carboxamide]	
0.01 to 10 nM	CC(C)N(c1ccccc1)c1c(-c2ccn(C)n2)nc(O)c(S(=O)(=O)c2ccc(-c3ccccc3C(=O)NC3CC3)cc2)c1O [Example 162, N-cyclopropyl-4′-((2,4-dihydroxy-5-(isopropyl(phen-yl)amino)-6-(1-methyl-1H-pyrazol-3-yl)pyridin-3-y)sulfonyl)-[1,1′-biphenyl]-2-carboxamide]	
